In ChEMBL document CHEMBL1126977, “Derivatives of 1-hydroxy-3-aminopyrrolidin-2-one (HA-966). Partial agonists at the glycine site of the NMDA receptor” (Bioorg Med Chem Lett, 1993):

Experiments:
[1] = species: Rattus norvegicus; test: In vitro inhibitory activity of glycine (0.3 uM) responses in isolated cultured cortical neurons; assay type: functional
[2] = target: Glutamate receptor ionotropic, NMDA 1 (Rattus norvegicus, UniProt P35439); test: Inhibition of [3H]glycine binding to rat cortical membranes; assay type: cell membranes, Membrane
[3] = Compound was evaluated for the pKa value; assay type: physicochemical
[4] = Compound was evaluated for the pKa value in experiment 2; assay type: physicochemical
[5] = Compound was evaluated for the pKa value in experiment 1; assay type: physicochemical
[6] = Compound was evaluated for the octanol-water partition coefficient […] at pH 7.4; assay type: physicochemical
[7] = species: Rattus norvegicus; test: Tested in vitro for the inhibitory constant of glycine (0.3 uM) responses in isolated cultured cortical neurones; assay type: functional

| Ki [1] [µM] | IC50 [2] [µM] | SMILES | Inhibition [1] [%] | further results |
| --- | --- | --- | --- | --- |
| – | > 100 | C[C@H]1CN(O)C(=O)[C@@H]1N | – | – |
| – | 313 | N[C@H]1C(=O)N(O)C[C@@H]1O | 30 | – |
| – | 86 | C[C@H]1CN(O)C(=O)[C@H]1N | – | – |
| – | > 100 | N[C@H]1C(=O)N(O)C[C@H]1CCO | 59 | – |
| – | > 100 | N[C@H]1C(=O)N(O)C[C@H]1CO | 63 | – |
| – | > 100 | N[C@H]1C(=O)N(O)C[C@H]1c1ccccc1 | 0 | – |
| – | 339 | NC1CCN(O)C1=O (single isomer, unassigned; (-)) | – | – |
| 6.3 | 27.2 | N[C@@H]1CCN(O)C1=O (stereo in doubt; 1) | – | logD [6]: 3.52; pKa [3]: 8.1 |
| 1.3 | 2.9 | C[C@@H]1CN(O)C(=O)[C@@H]1N (stereo in doubt; 2) | – | logD [6]: 3.42; pKa [3]: 8 |
| – | 1.4 | C[C@@H]1CN(O)C(=O)[C@@H]1N (stereo in doubt; (+)-2) | – | Ki [7]: 0.65 µM |

Further lines, the compound ahead of its results:

| SMILES | Ki [1] [µM] | IC50 [2] [µM] | Inhibition [1] [%] | further results |
| --- | --- | --- | --- | --- |
| N[C@H]1C(=O)N(O)C[C@H]1O | 0.75 | 1.3 | – | – |
| CCC[C@@H]1CNC(=O)[C@@H]1N | – | > 100 | 39 | – |
| CC[C@@H]1CN(O)C(=O)[C@@H]1N | 15.4 | 15 | – | – |
| C[C@@H]1CN(OCc2ccccc2)C(=O)[C@@H]1N | – | – | – | pKa [3]: 6.1 |
| O=C1C2CC(CN2)N1O (stereo not given) | 5 | – | – | – |
| NC1CCN(OCc2ccccc2)C1=O (stereo not given) | – | – | – | pKa [4]: 6.6; pKa [5]: 6.2 |
| C[C@@H]1C2NCCC1N(O)C2=O (stereo not given in full) | > 80 | > 100 | – | – |
| C[C@H]1C2NCCC1N(O)C2=O (stereo not given in full) | 8.2 | 48 | – | – |
| O=C1C2CC(CCN2)N1O (stereo not given) | 3.5 | 19 | – | – |
| O=C1C2NCCC2CN1O (stereo not given) | – | > 100 | 52 | – |
| O=C1C2CC(CCN2)CN1O (stereo not given) | – | > 100 | 28 | – |
| O=C1C2CC(CN2)CN1O (stereo not given) | – | > 100 | 16 | – |
| N[C@@H]1CCN(O)C1=O (stereo in doubt; (+)-1) | 2.5 | 12.5 | – | – |
